For the test, the target named is T1, v-Ki-ras p21 protein (serine at position 12) (Kirsten murine sarcoma virus, UniProt P01117).
T1 construct: made in house; host or cells: E. coli (plasmid pINIII-ras, a gift; lac promoter, IPTG induction)
In words: Inhibition by nucleotide of anti-p21ser antibody binding to p21 protein (immunoprecipitation under mild denaturation conditions). The note with it: high concentrations (10 mM) of nucleotide. An excerpt:
In this example the antibody was used to immunoprecipitate a form of p21 protein which is known to contain serine at position 12. This protein is a E. coli expressing v-Ki-ras p21 protein (produced using a plasmid pINIII-ras which was constructed by and was a gift from M. Inouge of SUNY at Stony Brook, New York in which transcription was directed by the lac promoter--see Masui, Y. et al., in Experimental Manipulation of Gene Expression, M. Inogue, ed., Academic Press, N.Y., pp 15-32 (1983). Expression of this protein was induced by treatment of the cultures with 2 mM isopropylthiogalactoside (IPTG). Cell pellets were resuspended in 50 mM glucose, 25 mM Tris.HCl pH 8.0, 10 mM EDTA, 2 mg/ml lysozyme, and 0.01% aprotinin, and were then incubated for 30 minutes at 4° C. Triton X-100 was added to 1% concentration for 5 additional minutes. Following a 10-minute 15,000 xg spin, the supernatant was spun for an additional 2 hours at 150,000 xg to prepare the cleared lysate. One hundred-μl samples of the cleared cell lysate were incubated with 40 μCi ^32 P gamma-labeled guanosine triphosphate (GTP) for 30 minutes at 37° C. […] Immune complexes were washed with 0.5% NP40, 1M LiCl, 50 mM Tris.HCl, pH 8.0, 120 mM NaCl, and analyzed by SDS-PAGE. […]

T1 sequence (P01117 whole entry): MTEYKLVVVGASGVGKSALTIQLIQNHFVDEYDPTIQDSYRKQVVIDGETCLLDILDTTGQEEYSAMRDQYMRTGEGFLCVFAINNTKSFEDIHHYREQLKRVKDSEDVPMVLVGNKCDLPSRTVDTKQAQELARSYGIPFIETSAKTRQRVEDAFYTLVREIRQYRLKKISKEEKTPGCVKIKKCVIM

For the compound `Nc1nc2c(ncn2[C@@H]2O[C@H](COP(=O)(O)OP(=O)(O)OP(=O)(O)O)[C@@H](O)[C@H]2O)c(=O)[nH]1` [GTP, guanosine triphosphate], the “inhibition of the binding of anti-p21ser antibodies to p21 protein” value is given as “substantially inhibit”.

For the origin of these results see patent US4762706A, “Peptide antibodies and their use in detecting oncogene products” (priority 1984, dated 1988).
